Laboratory results published in patent publication US9586968B2, “Bicycloamine-substituted-N-benzenesulfonamide compounds with selective activity in voltage-gated sodium channels” (Merck Sharp & Dohme Corp., priority 2013, dated 2017).

Columns and labels:
human Nav1.5 = molecular target: T1, human Nav1.5 (Homo sapiens, UniProt Q14524); experiment: PatchXpress automated patch-clamp, inactivated state block of Nav1.5 (selectivity); type: cell-based; details: determined by PatchXpress measurement, HEK 293 cells
T1 construct: expressed in transfected cells
Description: (§1) Compounds were tested on human Nav1.7 and Nav1.5 channels stably expressed in HEK 293 cells. Activity toward Nav 1.7 and Nav 1.5 channels was assessed using the following assay methodology.
(§2) Sodium Current Measurements on the PatchXpress 7000®:
(§3) To measure inactivated state block of sodium channels, test compounds were characterized in an automated PatchXpress® assay (Molecular Devices) using a double-pulse protocol on human Nav1.7 and Nav1.5 channels stably expressed in HEK 293 cells. Cells were held at a potential 20 mV negative to V0.5 inact. An 8000 ms pre-pulse 7 mV positive to V0.5 inact was given followed by a hyperpolarizing 2 ms pulse to −120 mV and a 20 ms test pulse to −20 mV. Protocol was applied to cells in the absence, presence of compound and after washout. The temperature of PatchXpress instruments was maintained at 22° C. The following recording solutions were used. Internal solution (mM): 30 CsCl, 5 HEPES, 10 EGTA, 120 CsF, 5 NaF, 2 MgCl2. External solution (mM): 120 NMDG, 40 NaCl, 1 KCl, 0.5 MgCl2, 5 HEPES, 2.7 CaCl2.
(§4) For all electrophysiology experiments, offline analysis was used to correct for current rundown and to determine percent inhibition as a function of drug concentration. IC50 values were determined by fitting to the Hill equation.

human Nav1.7 = molecular target: T2, human Nav1.7 (Homo sapiens, UniProt Q15858); experiment: PatchXpress automated patch-clamp, inactivated state block of Nav1.7; type: cell-based; details: channels stably expressed in HEK 293 cells, 22° C., read-out: potency for the Nav 1.7 sodium ion channel (as measured by PatchXpress)
T2 construct: expressed in transfected cells
Description: as §1, §2, §3, §4

T2 sequence (Q15858 whole entry): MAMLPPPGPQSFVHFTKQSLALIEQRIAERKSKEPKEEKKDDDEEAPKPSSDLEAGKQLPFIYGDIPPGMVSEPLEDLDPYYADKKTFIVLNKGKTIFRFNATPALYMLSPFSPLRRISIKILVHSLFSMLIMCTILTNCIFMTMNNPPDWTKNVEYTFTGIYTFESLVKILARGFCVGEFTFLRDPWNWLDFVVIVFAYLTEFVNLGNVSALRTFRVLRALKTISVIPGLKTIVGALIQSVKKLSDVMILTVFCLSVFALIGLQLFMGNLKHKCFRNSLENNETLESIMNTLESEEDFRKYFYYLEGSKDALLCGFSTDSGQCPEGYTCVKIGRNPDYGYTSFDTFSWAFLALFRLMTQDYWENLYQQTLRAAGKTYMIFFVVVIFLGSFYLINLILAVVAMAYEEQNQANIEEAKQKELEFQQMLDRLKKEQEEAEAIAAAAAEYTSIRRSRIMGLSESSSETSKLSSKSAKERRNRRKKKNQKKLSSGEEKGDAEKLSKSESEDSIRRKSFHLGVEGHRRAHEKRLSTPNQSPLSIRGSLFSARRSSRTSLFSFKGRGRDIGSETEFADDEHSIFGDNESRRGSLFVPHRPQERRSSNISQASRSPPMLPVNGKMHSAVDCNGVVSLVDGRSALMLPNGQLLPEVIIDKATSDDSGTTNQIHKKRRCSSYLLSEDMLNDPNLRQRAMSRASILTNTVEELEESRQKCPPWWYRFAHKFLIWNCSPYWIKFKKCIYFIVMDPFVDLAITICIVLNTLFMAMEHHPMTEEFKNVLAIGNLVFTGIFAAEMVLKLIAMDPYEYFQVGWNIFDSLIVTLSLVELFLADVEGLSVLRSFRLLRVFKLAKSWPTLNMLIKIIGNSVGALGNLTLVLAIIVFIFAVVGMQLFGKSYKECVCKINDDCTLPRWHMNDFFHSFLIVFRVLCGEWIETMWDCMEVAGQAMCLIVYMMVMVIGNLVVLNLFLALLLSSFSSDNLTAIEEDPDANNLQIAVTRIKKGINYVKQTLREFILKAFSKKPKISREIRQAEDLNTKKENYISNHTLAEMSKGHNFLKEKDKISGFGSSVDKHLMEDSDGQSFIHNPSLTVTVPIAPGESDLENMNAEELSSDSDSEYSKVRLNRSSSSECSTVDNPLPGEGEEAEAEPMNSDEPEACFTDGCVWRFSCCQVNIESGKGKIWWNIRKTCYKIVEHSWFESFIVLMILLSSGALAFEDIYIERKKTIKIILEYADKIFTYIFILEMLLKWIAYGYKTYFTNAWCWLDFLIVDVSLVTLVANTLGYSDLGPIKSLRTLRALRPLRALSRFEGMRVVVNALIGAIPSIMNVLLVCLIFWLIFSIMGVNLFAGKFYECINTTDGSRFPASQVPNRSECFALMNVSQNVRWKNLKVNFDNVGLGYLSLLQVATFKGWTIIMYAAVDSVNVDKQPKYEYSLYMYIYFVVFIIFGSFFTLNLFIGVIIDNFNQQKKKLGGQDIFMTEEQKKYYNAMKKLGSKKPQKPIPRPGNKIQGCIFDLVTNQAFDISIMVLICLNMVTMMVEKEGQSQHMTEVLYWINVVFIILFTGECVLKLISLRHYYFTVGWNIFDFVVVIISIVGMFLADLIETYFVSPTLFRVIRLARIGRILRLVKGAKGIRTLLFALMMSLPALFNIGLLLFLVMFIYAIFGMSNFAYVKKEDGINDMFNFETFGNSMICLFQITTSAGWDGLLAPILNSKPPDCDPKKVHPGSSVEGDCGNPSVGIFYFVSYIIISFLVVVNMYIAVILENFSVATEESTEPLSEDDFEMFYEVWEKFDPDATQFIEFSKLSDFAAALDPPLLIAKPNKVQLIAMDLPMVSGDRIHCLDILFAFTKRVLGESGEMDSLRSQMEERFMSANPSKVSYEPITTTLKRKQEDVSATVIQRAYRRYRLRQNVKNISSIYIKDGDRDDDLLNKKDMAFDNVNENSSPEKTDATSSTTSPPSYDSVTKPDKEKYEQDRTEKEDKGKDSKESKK
T1 sequence (Q14524 whole entry): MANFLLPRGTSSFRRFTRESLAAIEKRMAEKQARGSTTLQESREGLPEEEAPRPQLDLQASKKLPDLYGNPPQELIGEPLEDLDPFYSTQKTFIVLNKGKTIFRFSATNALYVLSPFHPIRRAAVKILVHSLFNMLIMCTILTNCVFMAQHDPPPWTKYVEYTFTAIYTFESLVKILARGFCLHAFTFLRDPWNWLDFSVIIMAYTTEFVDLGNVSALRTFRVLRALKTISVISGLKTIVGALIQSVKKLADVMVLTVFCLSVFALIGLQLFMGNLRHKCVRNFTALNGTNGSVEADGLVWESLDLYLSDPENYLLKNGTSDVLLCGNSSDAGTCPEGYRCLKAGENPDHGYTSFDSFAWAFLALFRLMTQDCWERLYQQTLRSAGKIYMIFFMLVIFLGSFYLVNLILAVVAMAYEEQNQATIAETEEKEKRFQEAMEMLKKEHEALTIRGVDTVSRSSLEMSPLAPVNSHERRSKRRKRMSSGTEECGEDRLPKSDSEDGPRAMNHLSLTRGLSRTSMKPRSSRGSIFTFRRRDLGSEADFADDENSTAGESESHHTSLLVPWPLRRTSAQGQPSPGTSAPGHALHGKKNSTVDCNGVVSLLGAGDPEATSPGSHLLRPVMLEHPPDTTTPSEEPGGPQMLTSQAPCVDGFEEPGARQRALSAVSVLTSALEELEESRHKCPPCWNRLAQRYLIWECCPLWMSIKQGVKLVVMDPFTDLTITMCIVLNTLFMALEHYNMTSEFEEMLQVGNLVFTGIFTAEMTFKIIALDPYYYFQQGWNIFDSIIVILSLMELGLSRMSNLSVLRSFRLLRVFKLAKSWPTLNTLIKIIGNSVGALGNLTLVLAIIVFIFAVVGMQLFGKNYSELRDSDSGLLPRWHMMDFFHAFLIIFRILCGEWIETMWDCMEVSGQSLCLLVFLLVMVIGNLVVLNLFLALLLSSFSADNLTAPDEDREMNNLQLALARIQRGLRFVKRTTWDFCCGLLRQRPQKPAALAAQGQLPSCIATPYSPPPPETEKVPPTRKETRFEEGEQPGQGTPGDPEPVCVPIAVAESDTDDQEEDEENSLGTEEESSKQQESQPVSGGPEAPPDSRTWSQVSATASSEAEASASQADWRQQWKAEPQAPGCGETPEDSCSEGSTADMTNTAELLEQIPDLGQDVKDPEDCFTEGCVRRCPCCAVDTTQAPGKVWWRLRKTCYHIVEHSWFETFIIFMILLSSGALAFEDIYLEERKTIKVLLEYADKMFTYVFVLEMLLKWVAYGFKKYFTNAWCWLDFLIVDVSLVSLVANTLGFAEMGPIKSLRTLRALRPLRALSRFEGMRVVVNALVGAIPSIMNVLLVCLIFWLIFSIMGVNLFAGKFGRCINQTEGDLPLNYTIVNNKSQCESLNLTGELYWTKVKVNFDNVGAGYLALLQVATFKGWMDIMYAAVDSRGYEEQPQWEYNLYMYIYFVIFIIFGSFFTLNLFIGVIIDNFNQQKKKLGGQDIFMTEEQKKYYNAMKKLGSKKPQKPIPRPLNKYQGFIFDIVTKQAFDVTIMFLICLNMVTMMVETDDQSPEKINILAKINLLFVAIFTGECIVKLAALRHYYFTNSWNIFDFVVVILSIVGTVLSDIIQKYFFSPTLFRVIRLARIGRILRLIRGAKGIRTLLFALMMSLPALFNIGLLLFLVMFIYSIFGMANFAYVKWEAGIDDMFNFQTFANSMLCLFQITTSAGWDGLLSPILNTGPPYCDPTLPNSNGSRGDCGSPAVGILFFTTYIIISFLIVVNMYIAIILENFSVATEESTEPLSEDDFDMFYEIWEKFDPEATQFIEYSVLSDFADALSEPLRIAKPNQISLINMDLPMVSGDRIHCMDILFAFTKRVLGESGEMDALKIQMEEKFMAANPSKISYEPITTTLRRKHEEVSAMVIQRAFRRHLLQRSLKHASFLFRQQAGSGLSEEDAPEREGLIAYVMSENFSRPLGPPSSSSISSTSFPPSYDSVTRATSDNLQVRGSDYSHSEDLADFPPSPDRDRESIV

Row | IC50 (human Nav1.7) | SMILES | ratio of Nav1.7 potency:Nav 1.5 potency (human Nav1.5)
1 | 113 nM | O=S(=O)(Nc1nccs1)c1cc(Cl)c(NCC23CCCCN2CCC3)cc1F (single isomer, unassigned) [Ex17-7-A, (S or R) 5-chloro-2-fluoro-4-(((octahydroindolizin-8a-yl)methyl)amino)-N-(thiazol-2-yl)benzenesulfonamide] | 450
2 | 185 nM | O=S(=O)(Nc1nccs1)c1cc(Cl)c(NCC23CCCCN2CCC3)cc1F (single isomer, unassigned) [Ex17-7-B, (R or S) 5-chloro-2-fluoro-4-(((octahydroindolizin-8a-yl)methyl)amino)-N-(thiazol-2-yl)benzenesulfonamide] | 193
3 | 55 nM | CCc1cc(S(=O)(=O)Nc2nccs2)c(F)cc1NCC12CCCN1CC(C)(C)C2 (single isomer, unassigned) [Ex18-9-A, (S or R)-4-(((2,2-dimethylhexahydro-1H-pyrrolizin-7a-yl)-methyl)-amino)-5-ethyl-2-fluoro-N-(thiazol-2-yl)-benzenesulfonamide] | 548
4 | 16 nM | CCc1cc(S(=O)(=O)Nc2nccs2)c(F)cc1NCC12CCCN1CC(C)(C)C2 (single isomer, unassigned) [Ex18-9-B, (R or S)-4-(((2,2-dimethylhexahydro-1H-pyrrolizin-7a-yl)methyl)-amino)-5-ethyl-2-fluoro-N-(thiazol-2-yl)-benzenesulfonamide] | 1870
5 | 370 nM | O=S(=O)(Nc1nncs1)c1cc(Cl)c(NCC23CCCN2CCC3)cc1F [Ex1-5, 5-chloro-2-fluoro-4-[(tetrahydro-1H-pyrrolizin-7a(5H)-ylmethyl)amino]-N-(1,3,4-thiadiazol-2-yl)benzenesulfonamide] | 81
6 | 221 nM | N#Cc1cc(S(=O)(=O)Nc2nccs2)c(F)cc1NCC12CCCN1CCC2 [Ex1-10, 5-cyano-2-fluoro-4-[(tetrahydro-1H-pyrrolizin-7a(5H)-ylmethyl)amino]-N-(1,3-thiazol-2-yl)benzenesulfonamide] | 94
7 | 35 nM | N#Cc1cc(S(=O)(=O)Nc2ncc(Cl)s2)c(F)cc1NCC12CCCN1CCC2 [Ex1-11, N-(5-chloro-1,3-thiazol-2-yl)-5-cyano-2-fluoro-4-[(tetrahydro-1H-pyrrolizin-7a(5H)-ylmethyl)amino]benzene-sulfonamide] | 469
8 | 43 nM | O=S(=O)(Nc1ncc(Br)s1)c1cc(Cl)c(NCC23CCCN2CCC3)cc1F [Ex1-13, N-(5-bromothiazol-2-yl)-5-chloro-2-fluoro-4-(((hexahydro-1H-pyrrolizin-7a-yl)methyl)amino)benzene-sulfonamide] | 1507
9 | 48 nM | O=S(=O)(Nc1nccs1)c1ccc(NCC23CCCN2CCC3)c(Cl)c1 [Ex1-14, 3-chloro-4-(((hexahydro-1H-pyrrolizin-7a-yl)methyl)amino)-N-(thiazol-2-yl)benzenesulfonamide] | 337
10 | 34 nM | Cc1cc(S(=O)(=O)Nc2nccs2)c(F)cc1NCC12CCCN1CCC2 [Ex1-15, 2-fluoro-4-(((hexahydro-1H-pyrrolizin-7a-yl)methyl)amino)-5-methyl-N-(thiazol-2-yl)benzenesulfonamide] | 1149
11 | 62 nM | CCOC(=O)c1cnc(NS(=O)(=O)c2cc(Cl)c(NCC34CCCN3CCC4)cc2F)s1 [Ex1-16, ethyl 2-(5-chloro-2-fluoro-4-(((hexahydro-1H-pyrrolizin-7a-yl)methyl)amino)phenylsulfonamido)thiazole-5-carboxylate] | 484
12 | 5 nM | O=S(=O)(Nc1nccs1)c1cc(Br)c(NCC23CCCN2CCC3)cc1F [Ex1-17, 5-bromo-2-fluoro-4-(((hexahydro-1H-pyrrolizin-7a-yl)methyl)amino)-N-(thiazol-2-yl)benzenesulfonamide] | 670
13 | 129 nM | O=S(=O)(Nc1nccs1)c1cc(F)c(NCC23CCCN2CCC3)cc1Cl [Ex1-18, 2-chloro-5-fluoro-4-(((hexahydro-1H-pyrrolizin-7a-yl)methyl)amino)-N-(thiazol-2-yl)benzenesulfonamide] | 462
14 | 14 nM | O=S(=O)(Nc1nccs1)c1ccc(NCC23CCCN2CCC3)c(C(F)(F)F)c1 [Ex1-20, 4-(((hexahydro-1H-pyrrolizin-7a-yl)methyl)amino)-N-(thiazol-2-yl)-3-(trifluoromethyl)benzene-sulfonamide] | 765
15 | 40 nM | N#Cc1cc(S(=O)(=O)Nc2nccs2)ccc1NCC12CCCN1CCC2 [Ex2-2, 3-cyano-4-[(tetrahydro-1H-pyrrolizin-7a(5H)-ylmethyl)amino]-N-(1,3-thiazol-2-yl)benzenesulfonamide] | 746
16 | 1000 nM | O=S(=O)(Nc1cccnn1)c1cc(Cl)c(NCC23CCCN2CCC3)cc1F [Ex3-5, 5-chloro-2-fluoro-N-(pyridazin-3-yl)-4-[(tetrahydro-1H-pyrrolizin-7a(5H)-ylmethyl)amino]benzene-sulfonamide] | 100
17 | 320 nM | O=S(=O)(Nc1ccc(F)cn1)c1cc(Cl)c(NCC23CCCN2CCC3)cc1F [Ex3-7, 5-chloro-2-fluoro-N-(5-fluoropyridin-2-yl)-4-[(tetrahydro-1H-pyrrolizin-7a(5H)-ylmethyl)amino]benzene-sulfonamide] | 94

Second part, the compound before the results:

Row | SMILES | IC50 (human Nav1.7) | ratio of Nav1.7 potency:Nav 1.5 potency (human Nav1.5)
18 | COc1ccc(C[C@H]2CN3CCC[C@@]3(CNc3cc(F)c(S(=O)(=O)Nc4nccs4)cc3Cl)C2)cc1 (single isomer, unassigned) [Ex15-10-A] | 2 nM | 918
19 | COc1ccc(C[C@@H]2CN3CCC[C@]3(CNc3cc(F)c(S(=O)(=O)Nc4nccs4)cc3Cl)C2)cc1 (single isomer, unassigned) [Ex15-10-B] | 30 nM | 308
20 | COc1ccc(CC2CN3CCCC3(CNc3cc(F)c(S(=O)(=O)Nc4ncc(F)s4)cc3Cl)C2)cc1 (single isomer, unassigned) [Ex15-12-A, 5-chloro-2-fluoro-N-(5-fluorothiazol-2-yl)-4-((((2R,7aS or 2S,7aR)-2-(4-methoxybenzyl)hexahydro-1H-pyrrolizin-7a-yl)-methyl)amino)benzene-sulfonamide] | 8 nM | 282
21 | COc1ccc(CC2CN3CCCC3(CNc3cc(F)c(S(=O)(=O)Nc4ncc(F)s4)cc3Cl)C2)cc1 (single isomer, unassigned) [Ex15-12-B, 5-chloro-2-fluoro-N-(5-fluorothiazol-2-yl)-4-((((2S,7aR or 2R,7aS)-2-(4-methoxybenzyl)hexahydro-1H-pyrrolizin-7a-yl)methyl)amino)benzene-sulfonamide] | 66 nM | 99
22 | COc1ccc([C@@H]2CN3CCC[C@@]3(CNc3cc(F)c(S(=O)(=O)Nc4nccs4)cc3Cl)C2)cc1 (single isomer, unassigned) [Ex16-12-A] | 51 nM | 348
23 | COc1ccc([C@H]2CN3CCC[C@]3(CNc3cc(F)c(S(=O)(=O)Nc4nccs4)cc3Cl)C2)cc1 (single isomer, unassigned) [Ex16-12-B] | 21 nM | 708
24 | CCc1cc(S(=O)(=O)Nc2nccs2)c(F)cc1NC[C@@]12CCCN1C[C@H](Cc1ccc(OC)cc1)C2 (single isomer, unassigned) [Ex18-5-A] | 9 nM | 315
25 | CCc1cc(S(=O)(=O)Nc2nccs2)c(F)cc1NC[C@]12CCCN1C[C@@H](Cc1ccc(OC)cc1)C2 (single isomer, unassigned) [Ex18-5-B] | 40 nM | 359
26 | N#Cc1cc(S(=O)(=O)Nc2ncns2)ccc1NCC12CCCN1CCC2 [Ex1-6, 3-cyano-4-[(tetrahydro-1H-pyrrolizin-7a(5H)-ylmethyl)amino]-N-(1,2,4-thiadiazol-5-yl)benzenesulfonamide] | 86 nM | 349
27 | N#Cc1cc(S(=O)(=O)Nc2cccc(F)n2)ccc1NCC12CCCN1CCC2 [Ex2-3, 3-cyano-N-(6-fluoropyridin-2-yl)-4-[(tetrahydro-1H-pyrrolizin-7a(5H)-ylmethyl)amino]benzene-sulfonamide] | 168 nM | 18
28 | O=S(=O)(Nc1cccc(F)n1)c1cc(F)c(NCC23CCCN2CCC3)cc1F [Ex2-4, 2,5-difluoro-N-(6-fluoropyridin-2-yl)-4-[(tetrahydro-1H-pyrrolizin-7a(5H)-ylmethyl)amino]benzene-sulfonamide] | 350 nM | 269
29 | N#Cc1cc(S(=O)(=O)Nc2ncc(Cl)s2)ccc1NCC12CCCN1CCC2 [Ex3-4, N-(5-chloro-1,3-thiazol-2-yl)-3-cyano-4-[(tetrahydro-1H-pyrrolizin-7a(5H)-ylmethyl)amino]benzene-sulfonamide] | 151 nM | 199
